Experiment [1] deals with T1, human ρ1 GABAA receptor (Homo sapiens, UniProt P24046).
T1 construct: gene GABRR1; ρ1-EM (flexible N-terminal region and intracellular M3-M4 loop deleted), homopentamer in saposin nanodiscs
As to the kind of experiment: cryo-EM structure ([…] Å); TEVC inhibition in Xenopus oocytes; F283Y/F284Y ablates inhibition. It is filed as cell-based.

For experiment [2], the target named is T1, human ρ1 GABAA receptor. As to the kind of experiment: cryo-EM structure with GABA; TEVC voltage-dependent block (Woodhull fit). In kind it is cell-based.

Counter-ions that a name gives are not always drawn.

T1 sequence (P24046 22-479): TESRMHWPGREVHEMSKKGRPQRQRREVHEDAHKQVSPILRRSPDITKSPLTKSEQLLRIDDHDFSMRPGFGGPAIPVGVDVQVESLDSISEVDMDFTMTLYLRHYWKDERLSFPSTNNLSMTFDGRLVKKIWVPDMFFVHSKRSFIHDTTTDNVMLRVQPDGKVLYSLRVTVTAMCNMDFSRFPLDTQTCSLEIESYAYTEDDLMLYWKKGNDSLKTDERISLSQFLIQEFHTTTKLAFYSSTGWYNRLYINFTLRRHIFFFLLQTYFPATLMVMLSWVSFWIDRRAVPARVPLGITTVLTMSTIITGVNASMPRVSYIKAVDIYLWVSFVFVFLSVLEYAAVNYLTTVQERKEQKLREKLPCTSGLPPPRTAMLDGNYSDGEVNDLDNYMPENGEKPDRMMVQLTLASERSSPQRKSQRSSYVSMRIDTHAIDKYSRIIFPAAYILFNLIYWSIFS

As to `C[C@]12CC[C@@H]3c4ccc(O)cc4CC[C@H]3[C@@H]1CC[C@@H]2O` [E2, β-estradiol], the IC50 against human ρ1 GABAA receptor [1] is roughly 30 µM.
With `CC(=O)C1CCC2C3CC=C4CC(OS(=O)(=O)O)CCC4(C)C3CCC12C` (centres unmarked) [PS, pregnenolone sulfate], the Kd on human ρ1 GABAA receptor [2] came to 36.3 µM.

(Values after PMC11379708, “Divergent mechanisms of steroid inhibition in the human ρ1 GABAA receptor” (Nature Communications, 2024).)
